Source: patent publication US8546430B2, “Thalidomide analogs” (P2D, Inc., priority 2003, dated 2013)
Entries after “also recorded” stand apart in the source; their conditions may differ.

How the values were obtained:
PBMC = assay: Cellular viability of PBMCs by MTS assay; format: cell-based, human
Procedure: (§1) The action of the these thiothalidomide analogs in inhibiting TNF-α secretion was assessed in human peripheral blood mononuclear cells (PBMC) and the results are shown in Table 1. Freshly prepared PBMCs were utilized in all studies. Blood, 40 ml, was drawn from a volunteer, immediately mixed with 50 U/ml Na heparin and was diluted to 50 ml total volume with sterile PBS. Samples, 20 ml, of this preparation then were layered on 20 ml Ficoll-Paque and were centrifuged (800 g, 20 min). The Ficoll/serum interface, containing PBMCs, was collected, diluted to 200 ml with PBS, and then was centrifuged (800 g, 15 min) to pellet the cells. Thereafter, the recovered pellet was re-suspended in 37° C. tissue culture medium (RPMI/1 mM Sodium pyruvate/10% heat inactivated FBS/2 mM Glutamax) and placed on ice. Recovered cells were counted, pipetted (200 ul of 5×10^5/ml) into 96 well plates, and incubated for an hour (37° C., 5% CO2). Thereafter, appropriate concentrations of test compounds or vehicle (10 ul DMSO) were added to duplicate wells. Following a further hour of incubation, a 10 ul sample of lipopolysaccharide (LPS) (100 ng/ml in supplemented medium) or vehicle was added to induce stimulated and unstimulated cells, respectively, and the cells were incubated overnight. Sixteen hours later, supernatants were collected for quantification of TNF-α levels by ELISA assay (Pierce-Endogen human TNF-α mini kit, Rockford, Ill.) and the use of specific capture and detection monoclonal antibodies, M303E and M302B (Pierce-Endogen), respectively. ELISA plates were read at λ=450 nm and TNF-α levels were determined from a six-point calibration curve that was run concurrently with the test samples. The effect of test drug concentrations on the cellular viability of PBMCs was assessed by MTS assay (Promega, Madison, Wis.) of the cells that provided the supernatant samples assayed for TNF-α levels, described above. It should be understood that this method can be used to test any of the disclosed compounds as a screening assay for readily determining their TNF-α modulating activity, and for selecting them for use in the disclosed method of treating a subject.

rat aortic ring = assay: Rat aortic ring microvessel growth assay; format: cell-based; details: 0.1-20 μg/ml daily for 4 days; FIGS. 2-11
Procedure: The angiogenesis modulating activity of representative compounds was assessed in a rat aortic ring microvessel growth assay. Briefly, twelve-well tissue culture plates were coated with 250 μl of Matrigel (Becton-Dickinson, Bedford, Mass.) and allowed to gel for 30 min at 37° C. and 5% CO2. Thoracic aortas were excised from 8- to 10-week-old male Sprague Dawley rats. After careful removal of fibroadipose tissues, the aortas were cut into 1-mm-long cross-sections, placed on Matrigel-coated wells, and covered with an additional 250 μl of Matrigel. After the second layer of Matrigel had set, the rings were covered with EGM-II and incubated overnight at 37° C. and 5% CO2. EGM-II consists of endothelial cell basal medium (EBM-II; Clonetics, San Diego, Calif.) plus endothelial cell growth factors provided as the EGM-II Bulletkit (Clonetics). The culture medium was subsequently changed to EBM-II supplemented with 2% fetal bovine serum, 0.25 μg/ml amphotericin B, and 10 μg/ml gentamicin. Aortic rings were treated daily with either the vehicle (0.5% DMSO), carboxyamidotriazole (CAI, 12 μg/ml), thalidomide or thalidomide analogs (0.1-20 μg/ml) for 4 days and photographed on the 5th day using a ×2.5 objective. CAI, a known antiangiogenic agent, was used at higher than clinically achievable concentration as a positive control. Experiments were repeated four times using aortas from four different rats. The area of angiogenic sprouting, reported in square pixels, was quantified using Adobe PhotoShop. Further details of the method are provided in Luzzio et al., J Med Chem.; 46:3793-9, 2003, which is incorporated by reference herein. It should be understood that this method can be used as an assay to rapidly select compounds having a desired angiogenic or anti-angiogenic effect, for example, for use in the disclosed methods of treating a subject.

TNF-α = assay: Inhibition of LPS-induced TNF-α secretion in human PBMC (ELISA); format: cell-based; details: for IC50 / inhibition at 30 µM / % Inhibition at 30 μM: LPS-induced TNF-α production in PBMC; for TNF-α inhibitory activity (in words): LPS-stimulated PBMC
Procedure: as §1

Compound | melting point [°C] | IC50 (TNF-α; Homo sapiens) [µM] | Toxicity / cytotoxicity (in words) (PBMC) | Cell viability at 0.3 μM (PBMC) [%] | Cell viability at 3 μM (PBMC) [%] | Cell viability at 30 μM (PBMC) [%] | Angiogenic modulating activity (in words) (rat aortic ring) | inhibition at 30 µM (TNF-α; Homo sapiens) [%] | TNF-α inhibitory activity (in words) (TNF-α) | other results
CC12CCC(C(=O)NC3CCC(=O)NC3=O)(OC1=O)C2(C)C (centres unmarked) [3-Camphanic amino-2,6-piperidinedione] |  |  |  |  |  |  | potent angiogenic activity at all concentrations tested; also recorded: exhibited angiogenic activity |  |  | 
CC(=O)Oc1ccccc1C(=O)NC1CCC(=O)NC1=O (centres unmarked) [Compound 24, 2-acetoxy-N-(2,6-dioxopiperidin-3-yl)benzamide] |  |  |  |  |  |  | potent angiogenic activity |  |  | 
S=C1c2ccccc2C(=S)N1C1CC=CCC1 (centres unmarked) [Compound 222, 2-(3-Cyclohexenyl)-1H-isoindol-1,3(2H)-dithione] |  |  | some toxicity at 30 μM | 96 | 94 | 50 | anti-angiogenic activity at higher concentrations and angiogenic activity at lower concentrations |  | active TNF-α inhibitors | IC50 (TNF-α): 15 µM; % Inhibition at 30 μM (TNF-α): 86%
Nc1ccc2c(=O)n(C3CCC(=O)NC3=O)c(=O)oc2c1 (centres unmarked) [Compound 228, 3-[2′,6′-piperidinedion-3′-yl]-7-amino-2H-1,3-benzoxazine-2,4(3H)-dione] |  |  |  |  |  |  |  |  | potent inhibitory action on TNF-α | EC50 (TNF-α; Homo sapiens, PBMC, TNF-α assay of Example 11): 0.4 µM
COc1ccc(N2C(=O)c3ccccc3C2=O)c(OC)n1 [Compound 5, 1,3-Dioxo-2-(2,6-dimethoxypyridin-3-yl)-isoindoline] |  |  |  |  |  |  | angiogenic activity at all concentrations tested |  |  | 
O=C1CCCC(=S)N1 [Compound 218, 6-Thioxo-2-piperidinone] | 135 | > 30 |  | 86 | 84 | > 100 |  | 15 |  | Inhibition of TNF-α secretion at 30 μM (in words) (TNF-α): minimally inhibited TNF-α secretion
Monothiophthalimide [Compound 225] |  |  | without toxicity | 94 | 94 | > 100 |  |  |  | Inhibition of TNF-α secretion at 30 μM (in words) (TNF-α): marginal TNF-α activity; IC50 (TNF-α): > 30 µM; % Inhibition at 30 μM (TNF-α): 34%
Br.COc1ccc(N2C(=O)c3ccccc3C2=O)c(O)n1 [Compound 6, 1,3-Dioxo-2-(2-hydroxy-6-methoxypyridin-3-yl)-isoindoline hydrobromide] |  |  |  |  |  |  | anti-angiogenic activity in the rat aortic ring assay at all concentrations tested |  |  | 
O=C1c2ccccc2C(=NCc2ccccc2)N1Cc1ccccc1 [Compound 210, 3-Benzylimino-2-benzyl-2,3-dihydroisoindol-1-one] |  |  |  |  |  |  | exhibited angiogenic activity |  |  | 

Further lines, with some results ahead:

melting point [°C] | IC50 (TNF-α; Homo sapiens) [µM] | Compound | Toxicity / cytotoxicity (in words) (PBMC) | Cell viability at 0.3 μM (PBMC) [%] | Cell viability at 3 μM (PBMC) [%] | Cell viability at 30 μM (PBMC) [%] | Angiogenic modulating activity (in words) (rat aortic ring) | inhibition at 30 µM (TNF-α; Homo sapiens) [%] | TNF-α inhibitory activity (in words) (TNF-α) | other results
263 to 265 | 20 | O=C1c2ccccc2C(=O)N1C1CCC(=S)NC1=S (centres unmarked) [Compound 213, 2-(2,6-Dithioxo-3-piperidinyl)-1H-isoindole-1,3(2H)-dione] | induced increasing cytotoxicity at higher concentrations; also recorded: induces toxicity at high concentration | 94 | 87 | 69 | anti-angiogenic activity at all concentrations tested | 52 | less active than dithioglutarimide 219 | 
 | 3 | S=C1NC(=S)c2ccccc21 [Compound 224, dithiophthalimide] | associated with toxicity at 30 μM | 83 | 83 | 54 | angiogenic activity at all concentrations tested | 95 | potent activity | 
114 |  | O=C1c2ccccc2C(=O)N1C1CC=CCC1 (centres unmarked) [Compound 221, 2-(3-Cyclohexenyl)-1H-isoindole-1,3(2H)-dione] |  |  |  |  |  |  |  | 
 | 20 | COC(=O)CCC(C(=O)OC)N1C(=O)c2ccccc2C1=S (centres unmarked) [Compound 208, Dimethyl 2-(1,3-dihydro-1-oxo-3-thioxo-2H-isoindol-2-yl)-pentanedioate] | without toxicity | 96 | 99 | 93 |  | 56 |  | 
225 to 226 | > 30 | O=C1NC(=S)CCC1N1C(=O)c2ccccc2C1=O (centres unmarked) [Compound 205, 2-(2-Oxo-6-thioxo-3-piperidinyl)-1H-isoindole-1,3(2H)-dione] |  | 96 | 90 | > 100 | anti-angiogenic activity at higher concentration, and some angiogenic activity at lower concentrations | 31 |  | Inhibition of TNF-α secretion at 30 μM (in words) (TNF-α): only marginal activity
157 | > 30 | O=C(O)CCC(C(=O)O)N1C(=O)c2ccccc2C1=S (centres unmarked) [Compound 211, 2-(1,3-Dihydro-1-oxo-3-thioxo-2H-isoindol-2-yl)-pentanedioic acid] |  | 93 | 93 | 86 | angiogenic activity at all concentrations tested | 20 | lowered potency | 
67 to 68 | 16 | O=C1c2ccccc2C(=S)N1C1CC=CCC1 (centres unmarked) [Compound 223, 2,3-dihydro-3-thioxo-2-(3-cyclohexenyl)-1H-isoindol-1-one] | some toxicity at 30 μM | 99 | 89 | 57 |  | 85 | active TNF-α inhibitors | 
> 300 |  | NC(=O)c1cc2ccccc2cc1C(=O)NC1CCC(=O)NC1=O (centres unmarked) [Compound 14, N-(2,6-dioxopiperidin-3-yl)-2,3-naphthalenedicarboxamide] |  |  |  |  |  |  |  | 
255 | > 30 | O=C1CCC(N2C(=O)c3ccccc3C2=S)C(=O)N1 (centres unmarked) [Compound 212, 2,3-Dihydro-3-thioxo-2-(2,6-dioxo-3-piperidinyl)-1H-isoindol-1-one] |  | 94 | 100 | 94 |  | 23 |  | Inhibition of TNF-α secretion at 30 μM (in words) (TNF-α): only marginal activity
 | 10 | COC(=O)CCC(C(=O)OC)N1C(=S)c2ccccc2C1=S (centres unmarked) [Compound 209, Dimethyl 2-(1,3-dihydro-1,3-dithioxo-2H-isoindol-2-yl)-pentanedioate] | induced cellular toxicity at lower concentrations | 89 | 86 | 57 |  | 85 |  | Fold more potent than 208 (TNF-α; TNF-α inhibitory action): 2 fold
